Measured values: US5700808A, “5- or 6-substituted β-carboline-3-carboxylic acid esters” (Schering Aktiengesellschaft, priority 1986, dated 1997)

Assays:
[1] = chimney test (motor discoordination); type: in vivo; conditions: ip, higher ED50 is better, as it indicates lower activity in inducing motor discoordination
Experimental: The chimney test was performed according to the method of Poissier, Jr., et al. Med. Exp. 3: 81-84 (1960). The higher the ED50 value in the chimney test the better, since this indicates a lower activity in inducing motor discoordination.

benzodiazepine receptor = assay: in vivo binding test (reduction of specific flunitrazepam binding in a living brain); conditions: dose reducing specific binding of flunitrazepam to the benzodiazepine receptor in a living brain to 50% of the control value
Text: The ED50 in vivo value represents the dose of a test compound effecting a reduction in specific binding of flunitrazepam to the benzodiazepine receptor in a living brain to 50% of the control value.

bioavailability in rats = conditions: rat, in vivo

Row | Compound | TD50 [1] [mg/kg] | ED50 mg/kg in vivo (benzodiazepine receptor) [mg/kg] | bioavailability (bioavailability in rats) [%]
1 | COCc1c(C(=O)OC(C)C)ncc2[nH]c3ccc(OCc4ccccc4)cc3c12 [B, 6-benzyloxy-4-methoxymethyl-beta-carboline-3-carboxylic acid ispropyl ester] | > 50 | 0.4 | 32
2 | CCOC(=O)c1ncc2[nH]c3ccc(OCc4ccccc4)cc3c2c1COC [A, 6-benzyloxy-4-methoxymethyl-beta-carboline-3-carboxylic acid ethyl ester] | 12.1 | 5.6 | 17
